Reference: patent US20260207713A1, “Drug Combination Kit for Controlling Blood Sugar” (Ningbo Y Biotechology lnc., priority 2023, published 2026)

Assays:
[1] = tested on: diabetic rat models; test: Type II diabetes rat model (high-sugar, high-fat diet plus STZ); fasting blood sugar and glycated hemoglobin after 3 months of drug intervention; type: in vivo, SPD rats
Protocol: A study in Aging (Albany NY). 2021 Mar. […] The inventor opted for 12-month-old male SPD rats (weighing between 540 grams and 560 grams) for the experiment. These rats were fed a high-sugar, high-fat diet (10% lard, 2.5% cholesterol, 1.0% pig bile salt, 20% sucrose, and 66.5% conventional feed). […] The diet continued for an additional 12 weeks. Finally, rats with a fasting blood sugar level exceeding 10 mmol/L were selected, and their fasting blood sugar levels were measured for 3 consecutive times every 3 days. Rats maintaining stable fasting blood sugar levels above 10 mmol/L were chosen. Each group comprised 5 animals, and a standard diet (18.0% fat, 24.0% protein, and 58.0% carbohydrates) was administered during the drug intervention period. Given that the lifespan of glycated hemoglobin is approximately 3 months, the duration of drug intervention was established at 3 months to ensure precise measurement of post-intervention glycated hemoglobin.
These ingredients are mixed evenly with unsaturated fish oil, and then encapsulated in ultra-long type No. 9 enteric-coated capsules. […] The ketoester was diluted with flavored water to achieve a 50% concentration, while the control solution consisted of flavored water only. The method of gastric gavage was employed.
After three months of medication, blood was drawn from the tail to measure fasting blood sugar and glycated hemoglobin, with results expressed as the mean.
Feed 50% ketoester solution three times daily: at 8 am, 12 pm, and 5 pm. The total daily intake was selected as 3 g/kg/day or 5 g/kg/day, as referenced in BMC Anesthesiol. 2023; 23:p43. […] The subsequent experiment utilized 50% ketoester solution at 3 g/day/kg.

[2] = cited from earlier work
[3] = tested on: patients with type II diabetes; conditions: type II diabetes patients on chemical hypoglycemic drugs, no insulin injection, 28 consecutive days; cited from earlier work
[4] = 20 mg/kg once a day in the morning, diabetic rats
[5] = 50% ketoester solution 3 g/kg/day, three times daily by gavage, diabetic rats
[6] = 50% ketoester solution 5 g/kg/day, three times daily by gavage, diabetic rats

Cc1ccc([C@@H]2O[C@H](CO)[C@@H](O)[C@H](O)[C@H]2O)cc1Cc1ccc(-c2ccc(F)cc2)s1 [Canagliflozin, canagliflozin, reference compound]
Fasting blood sugar after three months [1, 4]: 6.38 ± 0.41 mmol/L
Glycated hemoglobin measurement after three months [1, 4]: 5.63 +/− 0.42%

C[C@@H](O)CCOC(=O)C[C@@H](C)O [ketoester, (R)-3-hydroxybutyrate-(R)-1,3-butanediol ester]
Difference in effects on fasting blood sugar and glycated hemoglobin between dosages ([1]; 3 g/kg/day versus 5 g/kg/day): no significant difference
Fasting blood sugar measurement after three months [1, 5]: 7.15 ± 0.51 mmol/L
Glycated hemoglobin measurement after three months [1, 5]: 6.82 +/− 0.34%
Fasting blood sugar measurement after three months [1, 6]: 6.90 ± 0.41 mmol/L
Glycated hemoglobin measurement after three months [1, 6]: 6.75 +/− 0.42%
Duration of ketogenic effect ([2]; oral solution): 4 to 6 h
Ketogenic effect (level reached) ([2]; oral solution): approximately 3 mM
Reduction in fructosamine [3]: 13.4%
Reduction in glycated hemoglobin [3]: 8.3%

CC(O)CC(=O)[O-].[Na+] (stereo not drawn) [sodium 3-hydroxybutyrate, reference compound]
Ketogenic effects ([2]; early exogenous ketone): poor ketogenic effects
